# Key:
# Format in all cases: cell-based
# [1] = system: HAP1 MTAP-deleted cell line; assay: viability assay for the MTAP-deleted cell line; details: Homo sapiens
# [2] = system: PRMT5 (SDMA) in HAP1 MTAP-deleted cell line; assay: SDMA in-cell western assay, HAP1 MTAP-deleted cell line; details: for IC50 / IC90: Homo sapiens, SDMA in-cell western, HAP1 MTAP-deleted (MTAP-null) cell line; for Hap1 MTAP intact/deleted ratio: ratio of SDMA in-cell western IC50 in HAP1 MTAP-intact to IC50 in HAP1 MTAP-deleted cell line
# From the text: (§1) HAP1 MTAP-intact is a cell line in which endogenous levels of MTAP are expressed, and HAP1 MTAP-deleted is an MTAP-null cell line.
# [3] = system: PRMT5 (SDMA) in HAP1 MTAP-intact cell line; assay: SDMA in-cell western assay, HAP1 MTAP-intact cell line; details: Homo sapiens, HAP1 MTAP-intact cell line (endogenous MTAP), read-out: Hap 1 MTAP intact IC50
# From the text: as §1
IC50 [2] [nM],IC90 [2] [nM],IC50 [3] [nM],Compound,IC50 [1] [nM],Hap1 MTAP intact/deleted ratio [2]
< 5,75 to 125,5 to 50,"C[C@@H]1CN(C(=O)C(=O)Nc2cnc(N)c(C3CC3)c2)[C@@H](c2ccc(F)cc2)CN1C(=O)C(C)(C)C [Compound 152, N-(6-amino-5-cyclopropylpyridin-3-yl)-2-((2S,5R)-2-(4-fluorophenyl)-5-methyl-4-pivaloylpiperazin-1-yl)-2-oxoacetamide]",< 100,C (an IC50 ratio of less than 15 fold)
5 to 50,> 125,> 50,"CCc1cc(NC(=O)C(=O)N2C[C@@H](C)N(CC(C)C)C[C@@H]2c2ccccc2)cnc1N [Compound 32, N-(6-amino-5-ethylpyridin-3-yl)-2-((2S,5R)-4-isobutyl-5-methyl-2-phenylpiperazin-1-yl)-2-oxoacetamide]",< 100,A (an IC50 ratio greater than or equal to 30 fold)
5 to 50,> 125,> 50,"Cc1cc(NC(=O)C(=O)N2C[C@@H](C)N(C(=O)C(C)C)C[C@@H]2c2ccc(F)c(F)c2)cnc1N [Compound 158, N-(6-amino-5-methylpyridin-3-yl)-2-((2S,5R)-2-(3,4-difluorophenyl)-4-isobutyryl-5-methylpiperazin-1-yl)-2-oxoacetamide]",100 to 1000,A (an IC50 ratio greater than or equal to 30 fold)
5 to 50,75 to 125,> 50,"Cc1cc(NC(=O)C(=O)N2C[C@@H](C)N(C(=O)C3(C(F)(F)F)CC3)C[C@@H]2c2cc(Cl)cc(Cl)c2)cnc1N [Compound 62, N-(6-amino-5-methylpyridin-3-yl)-2-((2S,5R)-2-(3,5-dichlorophenyl)-5-methyl-4-(1-(trifluoromethyl)cyclopropanecarbonyl)piperazin-1-yl)-2-oxoacetamide]",< 100,A (an IC50 ratio greater than or equal to 30 fold)
5 to 50,75 to 125,> 50,Cc1cc(NC(=O)C(=O)N2C[C@@H](C)N(C(=O)OC(C)(C)C)C[C@@H]2c2ccc(F)c(F)c2)cnc1N [Compound 21],100 to 1000,C (an IC50 ratio of less than 15 fold)
5 to 50,> 125,> 50,COc1ncc(NC(=O)C(=O)N2C[C@@H](C)N(C(=O)C(C)(C)CN(C)C)C[C@@H]2c2ccccc2)cc1C(N)=O [Compound 69],100 to 1000,A (an IC50 ratio greater than or equal to 30 fold)
5 to 50,75 to 125,> 50,CCc1cc(NC(=O)C(=O)N2C[C@@H](C)OC[C@@H]2c2ccc3sc(C4CCN(C)CC4)nc3c2)cnc1N [Compound 96],< 100,B (an IC50 ratio greater than or equal to 15 fold but lower than 30 fold)
5 to 50,< 75,> 50,"C[C@@H]1CN(C(=O)C(=O)Nc2cncc3cn[nH]c23)[C@@H](c2ccc(N3CCN(C)CC3)cc2)CN1C(=O)C(C)(C)C [Compound 142, 2-((2S,5R)-5-methyl-2-(4-(4-methylpiperazin-1-yl)phenyl)-4-pivaloylpiperazin-1-yl)-2-oxo-N-(1H-pyrazolo[4,3-c]pyridin-7-yl)acetamide]",< 100,C (an IC50 ratio of less than 15 fold)
5 to 50,> 125,> 50,"C[C@@H]1CN(C(=O)C(=O)Nc2cncc3cn[nH]c23)[C@@H](c2ccc(F)cc2)CN1C(=O)OC(C)(C)C [Compound 129, (2R,5S)-tert-butyl 4-(2-((1H-pyrazolo[4,3-c]pyridin-7-yl)amino)-2-oxoacetyl)-5-(4-fluorophenyl)-2-methylpiperazine-1-carboxylate]",100 to 1000,A (an IC50 ratio greater than or equal to 30 fold)
> 50,> 125,> 50,"CC(C)C(=O)N1C[C@@H](c2ccc(F)cc2)N(C(=O)C(=O)Nc2cnc(N)c(C3CC3)c2)C[C@@H]1C [Compound 115, N-(6-amino-5-cyclopropyl-3-pyridyl)-2-[(2R,5S)-2-(4-fluorophenyl)-5-methyl-4-(2-methylpropanoyl)piperazin-1-yl]-2-oxo-acetamide]",> 1000,C (an IC50 ratio of less than 15 fold)
< 5,< 75,5 to 50,"CCc1cc(NC(=O)C(=O)N2C[C@@H](C)N(C(=O)C(C)C)C[C@@H]2c2cccc(N3CCN(C)CC3)c2)cnc1N [Compound 41, N-(6-amino-5-ethylpyridin-3-yl)-2-((2S,5R)-4-isobutyryl-5-methyl-2-(3-(4-methylpiperazin-1-yl)phenyl)piperazin-1-yl)-2-oxoacetamide]",< 100,C (an IC50 ratio of less than 15 fold)
5 to 50,75 to 125,> 50,"C[C@@H]1CN(C(=O)C(=O)Nc2cnc(N)c(C3CC3)c2)[C@@H](c2ccc(F)cc2)CN1C(=O)C1(C(F)(F)F)CC1 [Compound 112, N-(6-amino-5-cyclopropylpyridin-3-yl)-2-((2S,5R)-2-(4-fluorophenyl)-5-methyl-4-(1-(trifluoromethyl)cyclopropanecarbonyl)piperazin-1-yl)-2-oxoacetamide]",< 100,C (an IC50 ratio of less than 15 fold)
< 5,< 75,5 to 50,"CCc1cc(NC(=O)C(=O)N2C[C@@H](C)N(C(=O)C(C)(C)C)C[C@@H]2c2ccccc2)cnc1N [Compound 140, N-(6-amino-5-ethylpyridin-3-yl)-2-((2S,5R)-5-methyl-2-phenyl-4-pivaloylpiperazin-1-yl)-2-oxoacetamide]",< 100,C (an IC50 ratio of less than 15 fold)
< 5,< 75,5 to 50,"Cc1cc(NC(=O)C(=O)N2C[C@@H](C)N(C(=O)C3(C(F)(F)F)CC3)C[C@@H]2c2ccc(N3CCN(C)CC3)cc2)cnc1N [Compound 77, N-(6-amino-5-methylpyridin-3-yl)-2-((2S,5R)-5-methyl-2-(4-(4-methylpiperazin-1-yl)phenyl)-4-(1-(trifluoromethyl)cyclopropanecarbonyl)piperazin-1-yl)-2-oxoacetamide]",< 100,B (an IC50 ratio greater than or equal to 15 fold but lower than 30 fold)
< 5,< 75,> 50,"CC(C)OC(=O)N1C[C@@H](c2ccc(F)cc2)N(C(=O)C(=O)Nc2cnc(N)c(C3CC3)c2)C[C@@H]1C (stereo in doubt) [Compound 151, isopropyl 4-(2-((6-amino-5-cyclopropylpyridin-3-yl)amino)-2-oxoacetyl)-5-(4-fluorophenyl)-2-methylpiperazine-1-carboxylate]",< 100,B (an IC50 ratio greater than or equal to 15 fold but lower than 30 fold)
5 to 50,< 75,> 50,"CC(C)C(=O)N1C[C@H](c2ccc(F)cc2)N(C(=O)C(=O)Nc2cnc(N)c(C3CC3)c2)C[C@H]1C [Compound 86, N-(6-amino-5-cyclopropylpyridin-3-yl)-2-((2S,5R)-2-(4-fluorophenyl)-4-isobutyryl-5-methylpiperazin-1-yl)-2-oxoacetamide]",< 100,C (an IC50 ratio of less than 15 fold)
< 5,< 75,> 50,"Cc1cc(NC(=O)C(=O)N2C[C@@H](C)N(C(=O)C3(C(F)(F)F)CC3)C[C@@H]2c2ccc(F)c(Cl)c2)cnc1N [Compound 29, N-(6-amino-5-methylpyridin-3-yl)-2-((2S,5R)-2-(3-chloro-4-fluorophenyl)-5-methyl-4-(1-(trifluoromethyl)cyclopropanecarbonyl)piperazin-1-yl)-2-oxoacetamide]",< 100,B (an IC50 ratio greater than or equal to 15 fold but lower than 30 fold)
< 5,< 75,5 to 50,"C[C@@H]1CN(C(=O)C(=O)Nc2cnc(N)c3c2cnn3C)[C@@H](c2ccccc2)CN1C(=O)C1(C)CC1 [Compound 169, N-(7-Amino-1-methyl-pyrazolo[3,4-c]pyridin-4-yl)-2-oxo-2-[(2S,5R)-5-methyl-4-(1-methylcyclopropanecarbonyl)-2-phenyl-piperazin-1-yl]acetamide]",< 100,C (an IC50 ratio of less than 15 fold)
5 to 50,> 125,> 50,"Cc1cc(NC(=O)C(=O)N2C[C@@H](C)N(C(=O)C(C)C)C[C@@H]2c2ccc3scnc3c2)cnc1N (single isomer, unassigned) [Compound 43]",100 to 1000,C (an IC50 ratio of less than 15 fold)
5 to 50,< 75,5 to 50,"C[C@@H]1CN(C(=O)C(=O)Nc2cnc(N)c3cn[nH]c23)[C@@H](c2ccccc2)CN1C(=O)C(C)(C)CN(C)C [Compound 54, N-(4-amino-1H-pyrazolo[4,3-c]pyridin-7-yl)-2-oxo-2-[(2S,5R)-4-[3-(dimethylamino)-2,2-dimethyl-propanoyl]-5-methyl-2-phenyl-piperazin-1-yl]acetamide]",< 100,C (an IC50 ratio of less than 15 fold)

# Reference: US20250282749A1 (Tango Therapeutics, Inc., priority 2022, published 2025)
